Type in all cases: biochemical
The target of assay [1] is T1, JAK1 (Homo sapiens, UniProt P23458).
T1 construct: made in house; host or cells: SF9 insect cells (baculovirus)
Nature of the assay: JAK1 inhibition (Table 4). Conditions: read-out: JAK1 Ki.

In assay [2] the target is T2, JAK3 (Homo sapiens, UniProt P52333).
T2 construct: made in house; host or cells: SF9 insect cells (baculovirus)
The assay is described as follows: JAK3 inhibition (Table 4). The settings on record: read-out: JAK3 Ki.

Assay [3] has as its target T3, JAK2 (Homo sapiens, UniProt O60674).
T3 construct: made in house; host or cells: SF9 insect cells (baculovirus)
Nature of the assay: JAK2 inhibition (Table 4). The settings on record: read-out: JAK2 Ki.

For assay [4], the target named is T4, TYK2 (Homo sapiens, UniProt P29597).
T4 construct: made in house; host or cells: SF9 insect cells (baculovirus)
T4 sequence (P29597 873-1187): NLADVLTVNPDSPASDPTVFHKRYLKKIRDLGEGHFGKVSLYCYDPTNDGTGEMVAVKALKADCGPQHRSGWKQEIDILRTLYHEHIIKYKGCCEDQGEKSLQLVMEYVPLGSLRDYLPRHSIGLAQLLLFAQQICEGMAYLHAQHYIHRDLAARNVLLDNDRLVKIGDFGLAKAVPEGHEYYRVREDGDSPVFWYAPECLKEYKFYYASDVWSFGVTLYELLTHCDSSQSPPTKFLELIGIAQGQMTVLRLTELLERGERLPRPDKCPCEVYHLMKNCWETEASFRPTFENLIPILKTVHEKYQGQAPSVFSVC
The assay is described as follows: TYK2 inhibition (Table 4).

pKi: −log10 of the molar value.

T1 sequence (P23458 852-1154): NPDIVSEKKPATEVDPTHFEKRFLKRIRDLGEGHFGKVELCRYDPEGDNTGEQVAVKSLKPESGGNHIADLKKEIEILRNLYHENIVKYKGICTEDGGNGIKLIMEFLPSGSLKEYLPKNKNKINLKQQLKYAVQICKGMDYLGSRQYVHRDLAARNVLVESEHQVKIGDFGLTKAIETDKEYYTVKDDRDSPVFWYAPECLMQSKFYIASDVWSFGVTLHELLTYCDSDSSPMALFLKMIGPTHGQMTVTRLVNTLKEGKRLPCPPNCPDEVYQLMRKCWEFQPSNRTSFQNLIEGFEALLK
T3 sequence (O60674 812-1132): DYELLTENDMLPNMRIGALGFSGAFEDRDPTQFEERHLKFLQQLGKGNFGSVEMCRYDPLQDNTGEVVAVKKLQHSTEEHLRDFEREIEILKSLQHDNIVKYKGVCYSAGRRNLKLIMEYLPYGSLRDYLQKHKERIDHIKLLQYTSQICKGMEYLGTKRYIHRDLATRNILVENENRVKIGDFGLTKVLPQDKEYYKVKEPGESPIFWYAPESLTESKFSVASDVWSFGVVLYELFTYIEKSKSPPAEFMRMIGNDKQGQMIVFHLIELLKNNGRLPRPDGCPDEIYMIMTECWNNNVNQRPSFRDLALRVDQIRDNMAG
T2 sequence (P52333 783-1124): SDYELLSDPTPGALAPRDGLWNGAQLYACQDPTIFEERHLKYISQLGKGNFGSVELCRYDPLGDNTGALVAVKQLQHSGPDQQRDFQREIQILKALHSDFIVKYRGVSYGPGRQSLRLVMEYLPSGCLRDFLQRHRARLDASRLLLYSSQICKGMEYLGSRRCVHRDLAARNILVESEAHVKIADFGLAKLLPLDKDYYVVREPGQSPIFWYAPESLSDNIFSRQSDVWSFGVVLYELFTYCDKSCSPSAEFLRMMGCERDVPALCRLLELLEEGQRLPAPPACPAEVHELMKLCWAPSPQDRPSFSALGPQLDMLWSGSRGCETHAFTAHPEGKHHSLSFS

What is called pKi is the Ki on a negative log10 scale, so that one unit is a factor of ten. Turning to `O=CN1CCC(n2cnc3cnc4[nH]ccc4c32)C(F)(F)C1` (stereo not shown) [Example 180, 3,3-Difluoro-4-(6H-1,2,3,5,6-tetraaza-as-indacen-1-yl)-piperidine-1-carbaldehyde], the pKi in assay [1] was 8.26; in assay [2], 6.99; in assay [3] it was 7.70; in assay [4], 7.20.
As to `Cc1nc2cnc3[nH]ccc3c2n1-c1ccc(C#N)cc1` [Example 183, 4-(2-Methyl-6H-1,2,3,5,6-tetraaza-as-indacen-1-yl)-benzonitrile], the pKi in assay [1] was 7.69; in assay [2], 6.19; in assay [3], 7.35; in assay [4], 7.14.
On the same counts, the results for `OCCN1CC[C@@H](n2cnc3cnc4[nH]ccc4c32)C1` [Example 184, 2-[(R)-3-(6H-1,2,3,5,6-Tetraaza-as-indacen-1-yl)-pyrrolidin-1-yl]-ethanol] are 7.02, 5.83, 6.60 and 6.19.
In the same order, the values of `CC(C)(O)CN1CC[C@@H](n2cnc3cnc4[nH]ccc4c32)C1` [Example 185, 2-Methyl-1-[(R)-3-(6H-1,2,3,5,6-tetraaza-as-indacen-1-yl)-pyrrolidin-1-yl]-propan-2-ol] are 6.98, 6.30, 6.79 and 6.15.
On the same counts, the results for `CC(C)(C#N)C(=O)N1CC[C@@H](n2cnc3cnc4[nH]ccc4c32)C1` [Example 186, 2,2-Dimethyl-3-oxo-3-[(R)-3-(6H-1,2,3,5,6-tetraaza-as-indacen-1-yl)-pyrrolidin-1-yl]-propionitrile] are 6.66, 5.50, 6.78 and 5.82.
On to `N#CCCN1CC[C@@H](n2cnc3cnc4[nH]ccc4c32)C1` [Example 187, 3-[(R)-3-(6H-1,2,3,5,6-Tetraaza-as-indacen-1-yl)-pyrrolidin-1-yl]-propionitrile], for which the pKi in assay [1] is 7.99; in assay [2] it was 7.24; in assay [3], 7.65; in assay [4], 7.23.
With `CC(=O)N1CC[C@@H](n2cnc3cnc4[nH]ccc4c32)C1` [Example 188, 1-[(R)-3-(6H-1,2,3,5,6-Tetraaza-as-indacen-1-yl)-pyrrolidin-1-yl]-ethanone], the pKi was 7.16 in assay [1], 6.11 in assay [2], 6.79 in assay [3] and 6.17 in assay [4].
On the same counts, the results for `CS(=O)(=O)N1CC[C@@H](n2cnc3cnc4[nH]ccc4c32)C1` [Example 190, 1-((R)-1-Methanesulfonyl-pyrrolidin-3-yl)-1,6-dihydro-1,2,3,5,6-tetraaza-as-indacene] are 7.20, 7.23, 7.17 and 6.94.
In the same order, the values of `N#Cc1ccc(CN2CC[C@@H](n3cnc4cnc5[nH]ccc5c43)C2)cc1` [Example 191, 4-[(R)-3-(6H-1,2,3,5,6-Tetraaza-as-indacen-1-yl)-pyrrolidin-1-ylmethyl]-benzonitrile] are 8.31, 6.72, 7.75 and 6.77.
`COCC(=O)N1CCC(n2cnc3cnc4[nH]ccc4c32)CC1` [Example 192, 2-Methoxy-1-[4-(6H-1,2,3,5,6-tetraaza-as-indacen-1-yl)-piperidin-1-yl]-ethanone]: the pKi in assay [1] is 7.61; in assay [2] it was 6.40; in assay [3], 7.29; in assay [4], 6.41.
In the same order, the values of `O=S(=O)(CCO)N1CCC(n2cnc3cnc4[nH]ccc4c32)CC1` [Example 194, 2-[4-(6H-1,2,3,5,6-Tetraaza-as-indacen-1-yl)-piperidine-1-sulfonyl]-ethanol] are 8.41, 6.55, 8.27 and 7.51.
As for `N#CCC1(N2CCC(n3cnc4cnc5[nH]ccc5c43)CC2)COC1` [Example 195, {3-[4-(6H-1,2,3,5,6-Tetraaza-as-indacen-1-yl)-piperidin-1-yl]-oxetan-3-yl}-acetonitrile], the pKi in assay [1] is 9.18; in assay [2] it was 7.56; in assay [3], 8.95; in assay [4], 8.67.
On to `c1cc2c(ncc3ncn(C4CCc5[nH]ncc5C4)c32)[nH]1` (stereo not shown) [Example 198, 1-(4,5,6,7-Tetrahydro-1H-indazol-5-yl)-1,6-dihydro-1,2,3,5,6-tetraaza-as-indacene], for which the pKi in assay [1] is 8.20; in assay [2], 7.59; in assay [3], 7.99; in assay [4], 7.38.
With `C[C@@H](O)c1nc2cnc3[nH]ccc3c2n1[C@H]1CCCOC1` [Example 199, (R)-1-[(S)-1-(Tetrahydro-pyran-3-yl)-1,6-dihydro-1,2,3,5,6-tetraaza-as-indacen-2-yl]-ethanol], the pKi was 8.60 in assay [1], 6.96 in assay [2], 7.17 in assay [3] and 7.56 in assay [4].
In the same order, the values of `c1ccc(CN2CCC(n3c(Cn4cccn4)nc4cnc5[nH]ccc5c43)CC2)cc1` [Example 201, 1-(1-Benzyl-piperidin-4-yl)-2-pyrazol-1-ylmethyl-1,6-dihydro-1,2,3,5,6-tetraaza-as-indacene] are 8.14, 7.91, 7.60 and 6.31.
In the same order, the values of `CN(Cc1nc2cnc3[nH]ccc3c2n1C1CCN(Cc2ccccc2)CC1)S(C)(=O)=O` [Example 203, N-[1-(1-Benzyl-piperidin-4-yl)-1,6-dihydro-1,2,3,5,6-tetraaza-as-indacen-2-ylmethyl]-N-methyl-methanesulfonamide] are 7.71, 6.98, 6.84 and 6.59.
In the same order, the values of `c1cnn(Cc2nc3cnc4[nH]ccc4c3n2C2CCNCC2)c1` [Example 204, 1-Piperidin-4-yl-2-pyrazol-1-ylmethyl-1,6-dihydro-1,2,3,5,6-tetraaza-as-indacene] are 7.04, 6.06, 5.81 and 5.83.
For `N#CCCN1CCC(n2c(Cn3cccn3)nc3cnc4[nH]ccc4c32)CC1` [Example 205, 3-[4-(2-Pyrazol-1-ylmethyl-6H-1,2,3,5,6-tetraaza-as-indacen-1-yl)-piperidin-1-yl]-propionitrile], the pKi in assay [1] is 8.19; in assay [2], 7.49; in assay [3], 7.63; in assay [4] it was 7.06.
In the same order, the values of `CC(=O)NCc1nc2cnc3[nH]ccc3c2n1C1CCNCC1` [Example 207, N-(1-Piperidin-4-yl-1,6-dihydro-1,2,3,5,6-tetraaza-as-indacen-2-ylmethyl)-acetamide] are 7.11, 5.52, 5.73 and 5.92.
In the same order, the values of `Cn1nccc1C(=O)NCc1nc2cnc3[nH]ccc3c2n1C1CCN(CCC#N)CC1` [Example 209, 2-Methyl-2H-pyrazole-3-carboxylic acid {1-[1-(2-cyano-ethyl)-piperidin-4-yl]-1,6-dihydro-1,2,3,5,6-tetraaza-as-indacen-2-ylmethyl}-amide] are 8.66, 7.51, 7.75 and 7.18.
On the same counts, the results for `Cc1nc2cnc3[nH]ccc3c2n1C1CCS(=O)(=O)CC1` [Example 210, 1-(1,1-Dioxo-hexahydro-1-thiopyran-4-yl)-2-methyl-1,6-dihydro-1,2,3,5,6-tetraaza-as-indacene] are 6.83, 6.19, 6.19 and 6.29.
Consider `CS(=O)(=O)Nc1ccc(N2CCC(n3cnc4cnc5[nH]ccc5c43)CC2)nc1` [Example 211, N-[4-(6H-1,2,3,5,6-Tetraaza-as-indacen-1-yl)-3,4,5,6-tetrahydro-2H-[1,2]bipyridinyl-5′-yl]-methanesulfonamide], for which the pKi was 8.15 in assay [1], 6.87 in assay [2], 7.65 in assay [3] and 7.21 in assay [4].
In the same order, the values of `FCCN1CCC(n2cnc3cnc4[nH]ccc4c32)CC1` [Example 212, 1-[1-(2-Fluoro-ethyl)-piperidin-4-yl]-1,6-dihydro-1,2,3,5,6-tetraaza-as-indacene] are 8.66, 7.23, 8.49 and 7.93.
In the same order, the values of `CC(C)N[C@H]1CC[C@H](n2cnc3cnc4[nH]ccc4c32)CC1` [Example 214, Isopropyl-[4-(6H-1,2,3,5,6-tetraaza-as-indacen-1-yl)-cyclohexyl]-amine] are 8.25, 6.52, 7.36 and 7.08.
On the same counts, the results for `CC(C)CC(=O)N[C@H]1CC[C@H](n2cnc3cnc4[nH]ccc4c32)CC1` [Example 215, 3-Methyl-N-[4-(6H-1,2,3,5,6-tetraaza-as-indacen-1-yl)-cyclohexyl]-butyramide] are 8.72, 7.25, 8.10 and 7.03.

Source of the values: patent publication US8461328B2, “Tricyclic heterocyclic compounds, compositions and methods of use thereof” (Genentech, Inc., priority 2010, dated 2013).
